# According to patent US20190106688A1, “FUSION PROTEIN FOR CRISPR/CAS SYSTEM AND COMPLEX COMPRISING THE SAME AND USES THEREOF” (KOREA INSTITUTE OF SCIENCE AND TECHNOLOGY, priority 2017, published 2019):
# Tested on: A549 cells and A549 xenografts
# Assay: Immunoblot analysis of EGFR downstream signaling (ERK, AKT) in A549 cells and A549 xenografts
# Type: cell-based
# Details: in vitro and in vivo samples
# Experimental: The treated cells or tumor tissues were lysed using an RIPA lysis buffer (Sigma) unsupplemented or supplemented with a phosphatase inhibitor+a protease inhibitor (Thermo Scientific). A total of 50 μg of protein was analyzed by immunoblotting via incubation at 4° C. overnight with Sprimary antibody specific to KRAS (Santa Cruz, 1:200 dilution), p-ERK (cell signal, 1:1000 dilution), ERK (Cell Signaling, 1:1000 dilution), and β-Actin (Abcam, 1:10000 dilution) and then incubation with secondary antibodies conjugated with horseradish peroxidase for 2 hours at room temperature. The proteins were visualized by chemicalluminescence using a Western ECL substrate (Bio-Rad) and luminescence images were analyzed by a LAS-3000 (Fujifilm). Band intensities were quantified using ImageJ software.
# FIG. 6D illustrates immunoblot analysis of EGFR downstream signaling pathways in A549 cells and A549 xenografts.
smiles,measurement,value
Cn1cnc2c(F)c(Nc3ccc(Br)cc3Cl)c(C(=O)NOCCO)cc21 [AZD6244],activation (phosphorylation) of ERK,inhibited only activation of ERK
